US20240294467A1, “USP9X Inhibitors” (ProDeg, LLC, priority 2021, published 2024)
Blank lines part the entries; values can stand above or below the compound they belong to.

Key:
[1] = biological target: CYLD (Homo sapiens (Human), UniProt Q9NQC7); assay: DUB selectivity panel using ubiquitin-AMC; format: biochemical; settings: 5 μM compound, 500 nM Ubiquitin-AMC
Source text: (§1) Compounds were screened for DUB inhibitory and apoptotic activity against other deubiquitylases in a DUB selectivity panel using ubiquitin-AMC (BPS Bioscience Inc.).

[2] = biological target: UCH-L3 (Homo sapiens (Human), UniProt P15374); assay: DUB selectivity panel using ubiquitin-AMC; format: biochemical; settings: 5 μM compound, 500 nM Ubiquitin-AMC
Source text: as §1

[3] = biological target: USP10 (Homo sapiens (Human), UniProt Q14694); assay: DUB selectivity panel using ubiquitin-AMC; format: biochemical; settings: 5 μM compound, 500 nM Ubiquitin-AMC
Source text: as §1

[4] = biological target: USP13 (Homo sapiens (Human), UniProt Q92995); assay: DUB selectivity panel using ubiquitin-AMC; format: biochemical; settings: 5 μM compound, 500 nM Ubiquitin-AMC
Source text: as §1

[5] = biological target: USP15 (Homo sapiens (Human), UniProt Q9Y4E8); assay: DUB selectivity panel using ubiquitin-AMC; format: biochemical; settings: 5 μM compound, 500 nM Ubiquitin-AMC
Source text: as §1

[6] = biological target: USP28 (Homo sapiens (Human), UniProt Q96RU2); assay: DUB selectivity panel using ubiquitin-AMC; format: biochemical
Source text: as §1

[7] = biological target: USP4 (Homo sapiens (Human), UniProt Q13107); assay: DUB selectivity panel using ubiquitin-AMC; format: biochemical; settings: 5 μM compound, 500 nM Ubiquitin-AMC
Source text: as §1

[8] = biological target: USP5 (Homo sapiens (Human), UniProt P45974); assay: DUB selectivity panel using ubiquitin-AMC; format: biochemical; settings: 5 μM compound, 500 nM Ubiquitin-AMC
Source text: as §1

[9] = biological target: USP7 (Homo sapiens (Human), UniProt Q93009); assay: DUB selectivity panel using ubiquitin-AMC; format: biochemical
Source text: as §1

[10] = biological target: VCPIP (Homo sapiens (Human), UniProt Q96JH7); assay: DUB selectivity panel using ubiquitin-AMC; format: biochemical; settings: 5 μM compound, 500 nM Ubiquitin-AMC
Source text: as §1

[11] = tested on: RKO colon cells; assay: WST-1 cell viability assay; format: cell-based
Experimental: Compound Compound 9A was tested for the ability to inhibit the proliferation of Mia-Paca-2 pancreatic cancer cells. Mia-Paca-2 and MDA-MB-231 cells were seeded into the wells of a 96 well tissue culture plate in complete medium (10% fetal calf serum) and incubated overnight at 37° C./5% CO2). The medium was exchanged for fresh medium containing varying concentrations of Compound 9A and the plate was incubated for 72 hours at 37° C./5% CO2. The viability of cells at the end of this incubation was assessed with the WST-1 reagent. To 10 ml of warm (37° C.) complete medium, 1 ml WST-1 reagent was added. The medium from the wells of the plate with the Mia-Paca-2 cells was removed and replaced with 100 μL of the WST-1 reagent in complete medium. The plate was incubated at 37 37° C./5% CO2. At timed intervals the absorbance at 450 nm was determined for each well in a UVNis plate reader. For each well the slope of the plot of the absorbance 450 nm vs time was determined. The readings were normalized to that of the wells for the untreated control and a dose-response curve was plotted. A fit to the data was made from a four parameter, variable slope program (GraphPad Prism) and the IC50 was determined.
The same procedures were also applied to the compounds Compound 7A, Compound 6A, and Compound 8A to test their inhibitory activities against RKO colon, Mia-Paca-2 pancreatic and BT-549 cancer cells.

[12] = tested on: A-172; assay: ONCOLINES Profiler proliferation; format: cell-based
Source text: (§2) The compounds were profiled on an ONCOLINES™ Profiler (Netherlands Translational Research Center) assayed with 66 cancer cell lines to determine if they were capable of inhibiting the proliferation of these cancer cells.
(§3) To further evaluate potency of the compounds, they were compared with the USP9X inhibitor WP 1130 by screening both the compounds and WP1130 on a 66-cancer cell line panel ONCOLINES™ Profiler.

[13] = tested on: A549; assay: ONCOLINES Profiler proliferation; format: cell-based
Source text: as §2, §3

[14] = tested on: BT-20; assay: ONCOLINES Profiler proliferation; format: cell-based
Source text: as §2, §3

[15] = tested on: CCRF-CEM; assay: ONCOLINES Profiler proliferation; format: cell-based; settings: for IC50: acute lymphoblastic leukemia
Source text: as §2, §3

[16] = tested on: DU 145; assay: ONCOLINES Profiler proliferation; format: cell-based
Source text: as §2, §3

[17] = tested on: H82; assay: ONCOLINES Profiler proliferation; format: cell-based
Source text: as §2, §3

[18] = tested on: Hs 57BT; assay: ONCOLINES Profiler proliferation; format: cell-based; settings: for IC50: Hs 57BT (Hs578T), breast carcinoma
Source text: as §2, §3

[19] = tested on: LoVo; assay: ONCOLINES Profiler proliferation; format: cell-based; settings: for IC50: colorectal adenocarcinoma
Source text: as §2, §3

[20] = tested on: MOLT-4; assay: ONCOLINES Profiler proliferation; format: cell-based
Source text: as §2, §3

[21] = tested on: RKO; assay: ONCOLINES Profiler proliferation; format: cell-based; settings: for IC50: colon carcinoma
Source text: as §2, §3

[22] = tested on: RPMI-7951; assay: ONCOLINES Profiler proliferation; format: cell-based
Source text: as §2, §3

[23] = tested on: erbB2; assay: Western blot of erbB2 in SK-BR3 cells; format: cell-based, human; settings: 72-hour treatment, 10 μm
Experimental: Another substrate of USP9X is the receptor tyrosine kinase erbB2. […] The breast cancer cell line SK-BR3 expresses high levels of erbB2. This cell line was treated with Compound 7A and the effects on cell viability as well as expression levels of erbB2 were examined.
Compound 7A inhibited the viability of SK-BR3. The levels of erbB2 were determined by Western blot and found to decrease in parallel with the decline in cell viability. After 72-hour treatment of 10 μm Compound 7A, the level of erbB2 declined to about zero. The loss of erbB2 from the plasma membrane was also confirmed by flow cytometry.

[24] = 5 μM compound, 500 nM Ubiquitin-AMC

Sequence of USP7 (Q93009 whole entry): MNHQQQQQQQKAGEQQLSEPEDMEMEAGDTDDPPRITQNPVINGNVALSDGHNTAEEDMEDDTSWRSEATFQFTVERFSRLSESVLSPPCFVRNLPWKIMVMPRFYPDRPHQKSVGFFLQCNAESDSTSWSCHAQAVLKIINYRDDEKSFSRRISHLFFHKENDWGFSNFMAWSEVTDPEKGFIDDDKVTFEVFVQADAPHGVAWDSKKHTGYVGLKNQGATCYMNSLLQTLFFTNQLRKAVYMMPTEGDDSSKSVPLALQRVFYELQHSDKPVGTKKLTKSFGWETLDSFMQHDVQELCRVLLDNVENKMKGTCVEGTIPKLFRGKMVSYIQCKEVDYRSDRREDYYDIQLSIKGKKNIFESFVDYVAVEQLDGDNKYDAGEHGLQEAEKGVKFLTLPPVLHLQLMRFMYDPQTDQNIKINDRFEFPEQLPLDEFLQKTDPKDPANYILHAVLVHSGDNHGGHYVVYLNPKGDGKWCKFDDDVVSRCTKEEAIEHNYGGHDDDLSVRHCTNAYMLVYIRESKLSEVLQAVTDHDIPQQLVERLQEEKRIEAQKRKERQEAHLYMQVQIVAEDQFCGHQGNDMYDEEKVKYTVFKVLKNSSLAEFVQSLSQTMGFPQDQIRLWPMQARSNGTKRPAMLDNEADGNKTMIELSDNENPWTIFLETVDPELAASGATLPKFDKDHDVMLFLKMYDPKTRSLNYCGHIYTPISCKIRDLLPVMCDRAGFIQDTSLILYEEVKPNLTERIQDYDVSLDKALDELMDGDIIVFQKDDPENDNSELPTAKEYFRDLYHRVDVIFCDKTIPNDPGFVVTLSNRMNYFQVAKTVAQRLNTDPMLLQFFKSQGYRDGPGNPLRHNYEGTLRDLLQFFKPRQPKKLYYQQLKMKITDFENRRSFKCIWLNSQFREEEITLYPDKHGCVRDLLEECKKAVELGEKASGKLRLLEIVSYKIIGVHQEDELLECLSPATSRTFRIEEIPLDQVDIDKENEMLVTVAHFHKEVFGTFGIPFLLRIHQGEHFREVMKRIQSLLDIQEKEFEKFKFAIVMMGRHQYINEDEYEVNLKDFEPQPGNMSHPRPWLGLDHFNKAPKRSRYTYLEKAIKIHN
Sequence of USP4 (Q13107 whole entry): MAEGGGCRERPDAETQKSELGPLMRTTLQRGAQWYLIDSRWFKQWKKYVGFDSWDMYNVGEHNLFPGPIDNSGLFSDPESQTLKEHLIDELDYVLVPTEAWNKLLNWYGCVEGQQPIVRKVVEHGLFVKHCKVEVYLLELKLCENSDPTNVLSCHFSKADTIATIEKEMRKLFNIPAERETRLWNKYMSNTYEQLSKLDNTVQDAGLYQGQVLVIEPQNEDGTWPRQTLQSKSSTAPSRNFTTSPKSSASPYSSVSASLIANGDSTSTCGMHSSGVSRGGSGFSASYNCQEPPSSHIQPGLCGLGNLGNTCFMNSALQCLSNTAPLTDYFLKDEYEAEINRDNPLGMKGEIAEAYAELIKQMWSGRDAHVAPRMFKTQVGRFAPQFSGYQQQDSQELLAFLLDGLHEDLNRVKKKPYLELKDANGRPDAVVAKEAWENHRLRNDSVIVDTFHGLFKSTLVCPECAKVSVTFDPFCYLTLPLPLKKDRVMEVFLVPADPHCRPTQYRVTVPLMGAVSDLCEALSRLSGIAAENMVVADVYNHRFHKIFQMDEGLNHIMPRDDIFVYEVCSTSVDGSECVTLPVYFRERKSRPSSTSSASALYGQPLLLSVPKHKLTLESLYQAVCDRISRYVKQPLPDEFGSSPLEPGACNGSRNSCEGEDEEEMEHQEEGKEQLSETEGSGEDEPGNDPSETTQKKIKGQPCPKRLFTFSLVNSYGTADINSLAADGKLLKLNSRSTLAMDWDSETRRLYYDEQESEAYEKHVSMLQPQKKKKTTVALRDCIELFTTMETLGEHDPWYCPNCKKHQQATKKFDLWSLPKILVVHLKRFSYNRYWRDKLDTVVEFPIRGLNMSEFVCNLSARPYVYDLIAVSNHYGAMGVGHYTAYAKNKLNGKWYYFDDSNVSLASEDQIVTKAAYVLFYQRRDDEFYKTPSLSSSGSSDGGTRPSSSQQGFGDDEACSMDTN
Sequence of CYLD (Q9NQC7 whole entry): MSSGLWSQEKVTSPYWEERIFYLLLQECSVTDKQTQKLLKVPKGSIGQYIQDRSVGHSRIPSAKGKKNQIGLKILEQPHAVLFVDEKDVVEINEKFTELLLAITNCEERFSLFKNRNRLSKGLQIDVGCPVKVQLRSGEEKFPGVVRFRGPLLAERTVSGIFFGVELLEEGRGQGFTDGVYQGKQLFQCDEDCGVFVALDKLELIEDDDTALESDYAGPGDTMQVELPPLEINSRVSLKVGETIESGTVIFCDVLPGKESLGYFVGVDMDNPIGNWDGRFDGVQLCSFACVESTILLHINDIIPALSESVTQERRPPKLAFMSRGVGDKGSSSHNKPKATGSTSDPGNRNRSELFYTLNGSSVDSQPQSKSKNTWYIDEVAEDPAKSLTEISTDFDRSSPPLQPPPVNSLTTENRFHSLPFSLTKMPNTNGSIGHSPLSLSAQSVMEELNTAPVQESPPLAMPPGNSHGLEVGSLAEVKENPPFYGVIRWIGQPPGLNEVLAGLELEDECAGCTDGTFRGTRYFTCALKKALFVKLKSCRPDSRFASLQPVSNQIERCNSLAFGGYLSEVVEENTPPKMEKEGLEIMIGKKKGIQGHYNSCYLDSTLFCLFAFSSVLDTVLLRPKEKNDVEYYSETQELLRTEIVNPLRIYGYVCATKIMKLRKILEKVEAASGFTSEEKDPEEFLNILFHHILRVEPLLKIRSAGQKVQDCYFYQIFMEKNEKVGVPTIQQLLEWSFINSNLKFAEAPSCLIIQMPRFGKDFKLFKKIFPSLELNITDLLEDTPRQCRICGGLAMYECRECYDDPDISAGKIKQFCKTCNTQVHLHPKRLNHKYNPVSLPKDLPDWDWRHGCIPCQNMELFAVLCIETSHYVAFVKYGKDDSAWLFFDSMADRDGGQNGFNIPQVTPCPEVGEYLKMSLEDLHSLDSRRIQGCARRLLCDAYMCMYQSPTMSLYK
Sequence of USP13 (Q92995 whole entry): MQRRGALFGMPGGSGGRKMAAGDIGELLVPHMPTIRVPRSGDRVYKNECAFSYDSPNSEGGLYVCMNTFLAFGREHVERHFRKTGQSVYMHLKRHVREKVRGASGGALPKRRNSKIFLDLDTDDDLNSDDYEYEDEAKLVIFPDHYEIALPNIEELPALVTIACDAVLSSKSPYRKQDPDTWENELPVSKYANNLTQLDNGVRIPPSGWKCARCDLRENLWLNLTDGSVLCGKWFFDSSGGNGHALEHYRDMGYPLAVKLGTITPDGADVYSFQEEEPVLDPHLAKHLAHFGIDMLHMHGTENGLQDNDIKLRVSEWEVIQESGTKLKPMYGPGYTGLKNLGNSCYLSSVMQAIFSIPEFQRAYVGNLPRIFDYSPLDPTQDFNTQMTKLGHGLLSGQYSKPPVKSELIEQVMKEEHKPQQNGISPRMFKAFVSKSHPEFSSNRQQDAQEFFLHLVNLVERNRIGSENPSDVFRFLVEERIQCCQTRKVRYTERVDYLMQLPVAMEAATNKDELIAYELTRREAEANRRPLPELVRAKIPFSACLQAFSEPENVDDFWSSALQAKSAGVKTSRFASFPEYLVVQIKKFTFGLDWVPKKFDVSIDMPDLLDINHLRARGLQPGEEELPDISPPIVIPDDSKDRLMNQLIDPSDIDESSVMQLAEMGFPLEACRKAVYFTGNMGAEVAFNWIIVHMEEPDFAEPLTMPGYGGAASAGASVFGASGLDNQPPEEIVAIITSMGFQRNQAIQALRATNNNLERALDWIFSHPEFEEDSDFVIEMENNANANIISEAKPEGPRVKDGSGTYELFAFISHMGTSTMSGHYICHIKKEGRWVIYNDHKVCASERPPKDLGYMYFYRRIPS
Sequence of UCH-L3 (P15374 whole entry): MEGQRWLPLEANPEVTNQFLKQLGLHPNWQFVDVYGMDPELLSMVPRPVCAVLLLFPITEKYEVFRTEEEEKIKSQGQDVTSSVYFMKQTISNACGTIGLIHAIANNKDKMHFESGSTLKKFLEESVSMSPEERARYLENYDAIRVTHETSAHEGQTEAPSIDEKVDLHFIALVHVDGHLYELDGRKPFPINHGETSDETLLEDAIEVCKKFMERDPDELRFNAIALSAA
Sequence of USP5 (P45974 whole entry): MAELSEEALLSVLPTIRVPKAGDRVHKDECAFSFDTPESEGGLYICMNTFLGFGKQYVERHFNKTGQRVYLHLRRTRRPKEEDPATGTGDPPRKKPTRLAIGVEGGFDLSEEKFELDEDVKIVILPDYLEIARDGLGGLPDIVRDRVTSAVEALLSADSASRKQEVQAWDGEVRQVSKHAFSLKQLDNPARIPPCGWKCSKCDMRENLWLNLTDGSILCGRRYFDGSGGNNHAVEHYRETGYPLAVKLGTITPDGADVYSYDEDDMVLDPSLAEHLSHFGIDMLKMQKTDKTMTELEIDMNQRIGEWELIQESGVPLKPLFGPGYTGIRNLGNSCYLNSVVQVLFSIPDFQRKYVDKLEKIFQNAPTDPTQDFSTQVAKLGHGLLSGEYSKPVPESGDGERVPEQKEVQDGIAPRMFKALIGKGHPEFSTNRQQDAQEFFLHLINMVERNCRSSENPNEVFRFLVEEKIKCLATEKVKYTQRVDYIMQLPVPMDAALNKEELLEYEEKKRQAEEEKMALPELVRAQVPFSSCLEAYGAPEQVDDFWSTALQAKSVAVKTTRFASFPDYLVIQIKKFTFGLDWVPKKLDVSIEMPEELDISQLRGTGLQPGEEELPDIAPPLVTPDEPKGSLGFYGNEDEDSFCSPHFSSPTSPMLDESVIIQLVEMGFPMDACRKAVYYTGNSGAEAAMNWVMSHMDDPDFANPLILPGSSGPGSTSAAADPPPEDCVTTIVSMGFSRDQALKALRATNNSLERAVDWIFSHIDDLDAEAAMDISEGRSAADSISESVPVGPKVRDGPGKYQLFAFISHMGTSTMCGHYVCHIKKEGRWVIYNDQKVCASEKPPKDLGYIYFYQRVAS

inhibition at 5 µM [1]: 0% | inhibition of CYLD [1]: no detectable effect | inhibition at 5 µM [2]: 0% | inhibition of UCH-L3 [2]: no detectable effect | inhibition at 5 µM [3]: < 1% | inhibition at 5 µM [4]: 0% | inhibition of USP13 [4]: no detectable effect | inhibition at 5 µM [5]: < 2% | IC50 [6]: 15000 nM | inhibition at 5 µM [7]: 0% | inhibition of USP4 [7]: no detectable effect | inhibition at 5 µM [8]: 0% | inhibition of USP5 [8]: no detectable effect | IC50 [9]: > 50000 nM | inhibition at 5 µM [9, 24]: 0% | inhibition of USP7 [9, 24]: no detectable effect | inhibition at 5 µM [10]: < 3%
Compound: CN1CCOc2ccc(cc2)C(=O)NCc2cccc(c2)C(=O)N[C@@H](CC(C)(C)C)C(=O)Nc2ccc(cc2)CCN(C)C(=O)CC(C)(C)CC1=O [Compound 5A]

IC50 Ratio WP1130/Compound 7A ([13]; A549): 4.7 | IC50 ([13]; Homo sapiens, A549, lung): 3000 nM | IC50 Ratio WP1130/Compound 7A ([14]; BT-20): 3.6 | IC50 ([14]; BT-20, breast carcinoma): 1400 nM | IC50 ([14]; Homo sapiens, BT-20, BT-20, breast carcinoma): 1390 nM | IC50 Ratio WP1130/Compound 7A [15]: 17.6 | IC50 ([15]; Homo sapiens): 247 nM | IC50 [15]: 250 nM | IC50 Ratio WP1130/Compound 7A [19]: 8.6 | IC50 ([19]; Homo sapiens): 635 nM | IC50 [19]: 640 nM | IC50 ([20]; Homo sapiens, MOLT-4, MOLT-4, acute lymphoblastic leukemia): 594 nM | IC50 Ratio WP1130/Compound 7A ([20]; MOLT-4): 6.8 | IC50 ([20]; MOLT-4, acute lymphoblastic leukemia): 590 nM
Compound: CN1CCOc2ccc(cc2)C(=O)NCc2ccc(F)c(c2)C(=O)N[C@@H](CC(C)(C)C)C(=O)Nc2ccc(cc2)CCN(C)C(=O)CC(C)(C)CC1=O [Compound 7A]
cell viability [11]: significant decreases | IC50 Ratio WP1130/Compound 7A ([12]; A-172): 5.1 | IC50 ([12]; A-172, glioblastoma): 1100 nM | IC50 ([12]; Homo sapiens, A 172, A-172, glioblastoma): 1070 nM | IC50 Ratio WP1130/Compound 7A ([16]; DU145): 4.8 | IC50 ([16]; DU 145, prostate carcinoma): 2000 nM | IC50 ([16]; Homo sapiens, DU-145, DU 145, prostate carcinoma): 2010 nM | IC50 Ratio WP1130/Compound 7A ([17]; H82): 6.0 | IC50 ([17]; Homo sapiens, NCI-H82, H82, small cell lung): 1100 nM | IC50 ([18]; Homo sapiens, Hs-578T): 1410 nM | IC50 [18]: 1400 nM | IC50 Ratio WP1130/Compound 7A ([18]; Hs578T): 4.5 | IC50 Ratio WP1130/Compound 7A [21]: 4.9 | IC50 ([21]; Homo sapiens): 880 nM | IC50 [21]: 683 nM | IC50 ([22]; Homo sapiens, RPMI-7951, RPMI-7951, malignant melanoma): 1200 nM | IC50 Ratio WP1130/Compound 7A ([22]; RPMI7951): 3.5 | IC50 ([22]; RPMI-7951, malignant melanoma): 1200 nM | level of erbB2 declined to [23]: about zero
